Measurements reported in patent US20040138160A1, “Preventive/therapeutic method for cancer” (priority 2001, published 2004).

Legend:
[1] = tested on: human breast cancer cell line BT-474; test: Inhibitory action on breast cancer cell line BT-474 proliferation in vitro (SRB); format: cell-based; settings: heregulin 0.04 μg/ml, cultured 5 days, read-out: Inhibition of cell proliferation BT-474 (IC50:μM)
Experimental: Cell suspension of human breast cancer cell line BT-474 (100 μl) suspended at 1,000 cells/100 μl), was placed in a 96-well microwell plate and cultured at 37° C. in a 5% carbon dioxide gas incubator. On the following day, 100 μl of a solution of each test compound, previously diluted 2-fold with a heregulin solution prepared to a final concentration of 0.04 μg/ml, was added, and the cells were cultured for 5 days. After the culture medium containing the test compound was removed, the cells were washed and fixed with 5% trichloroacetic acid, after which a 0.4% (w/v) SRB solution (dissolved in 1% acetic acid) was added to fix and stain the cells (Skehan et al., Journal of the National Cancer Institute, Vol. 82, pp. 1107-1112, 1990). After the pigment solution was removed and the plate was washed with a 1% acetic acid solution, 100 μl of an extractant (10 mM Tris buffer solution) was added to extract and dissolve the pigment; absorbance was measured at an absorption wavelength of 550 nm to quantify the amount of cells as protein content. Taking as 100% the absorbance for the control group, which received no test compound solution, the ratio of the absorbance for each treatment group was determined, and the compound concentration required to achieve 50% suppression of the residual cell content relative to the control (IC50 value) was calculated.

HER2 = HER2 (Homo sapiens, UniProt P04626); test: Suppression of receptor tyrosine-phosphorylation in human breast cancer cells (intracellular HER2 phosphorylation, MCF-7, heregulin stimulation); format: cell-based; set-up: endogenous in cells; host or cells: MCF-7; settings: MCF-7 cells; test compound 2 hours, then heregulin 0.8 μg/ml 5 minutes; read-out: Intracellular HER2 phosphorylation inhibition MCF-7 (IC50:μM)
Sequence of HER2 (P04626 23-1255): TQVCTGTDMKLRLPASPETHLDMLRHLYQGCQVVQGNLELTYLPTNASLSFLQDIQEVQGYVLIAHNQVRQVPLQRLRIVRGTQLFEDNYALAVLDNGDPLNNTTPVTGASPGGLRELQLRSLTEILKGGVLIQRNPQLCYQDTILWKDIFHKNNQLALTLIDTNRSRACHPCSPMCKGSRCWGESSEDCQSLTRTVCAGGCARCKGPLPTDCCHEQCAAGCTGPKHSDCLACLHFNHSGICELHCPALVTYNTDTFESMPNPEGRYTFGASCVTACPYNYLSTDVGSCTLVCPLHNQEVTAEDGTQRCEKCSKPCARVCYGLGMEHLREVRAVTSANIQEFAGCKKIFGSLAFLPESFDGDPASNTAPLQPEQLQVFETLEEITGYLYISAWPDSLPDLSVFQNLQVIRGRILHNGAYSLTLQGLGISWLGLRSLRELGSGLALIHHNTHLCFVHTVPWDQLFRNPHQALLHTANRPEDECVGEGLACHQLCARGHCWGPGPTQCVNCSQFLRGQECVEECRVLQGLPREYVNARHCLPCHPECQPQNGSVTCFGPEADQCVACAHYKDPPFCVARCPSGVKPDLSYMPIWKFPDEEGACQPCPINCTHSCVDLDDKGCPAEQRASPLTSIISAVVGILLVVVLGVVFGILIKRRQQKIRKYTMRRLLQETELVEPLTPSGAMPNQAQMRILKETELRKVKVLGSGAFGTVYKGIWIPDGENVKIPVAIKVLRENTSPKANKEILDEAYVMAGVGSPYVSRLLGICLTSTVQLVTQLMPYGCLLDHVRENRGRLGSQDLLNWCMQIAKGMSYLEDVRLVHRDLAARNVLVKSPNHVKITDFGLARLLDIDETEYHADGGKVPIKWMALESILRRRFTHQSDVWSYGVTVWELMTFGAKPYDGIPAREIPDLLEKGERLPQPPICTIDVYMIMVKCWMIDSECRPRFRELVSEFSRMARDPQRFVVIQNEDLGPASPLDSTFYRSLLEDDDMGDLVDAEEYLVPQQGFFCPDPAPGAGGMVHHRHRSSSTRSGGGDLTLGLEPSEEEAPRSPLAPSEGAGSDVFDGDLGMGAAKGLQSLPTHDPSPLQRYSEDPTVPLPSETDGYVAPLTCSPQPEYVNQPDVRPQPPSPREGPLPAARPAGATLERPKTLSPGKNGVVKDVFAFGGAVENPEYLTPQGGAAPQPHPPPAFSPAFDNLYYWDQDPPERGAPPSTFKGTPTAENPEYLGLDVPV
Experimental: Cell suspension of Human breast cancer cell line MCF-7 (500 μl), suspended at 300,000 cells/0.5 mL, was placed in a 24-well plate and cultured at 37° C. in a 5% carbon dioxide gas incubator. On the following day, 250 μl of a solution of 4-fold serially diluted test compound was added. After 2 hours, 250 μl of a heregulin solution, prepared to a final concentration of 0.8 μg/ml, was added. After 5 minutes, a buffer solution for lysis of extract solution was added to stop the reaction and to extract and yield a cell-lysate protein. After this cell-lysate protein was subjected to SDS-polyacrylamide gel electrophoresis to separate the protein, the protein in the gel was blotted onto a nylon filter. This filter was reacted with an anti-phosphotyrosine specific antibody; the portion containing phosphotyrosine on the filter was luminated using the ECL method to photosensitize an X-ray film. The amount of the film photosensitization was determined using an image analyzer.

- IC50 [1]: < 0.05 µM
- IC50 (HER2): 1.9 µM
SMILES: Cc1cccc(/C=C/c2nc(COc3ccc(CCCCc4c[nH]c(CC(O)CO)n4)cc3)co2)c1 (centres unmarked) [Compound B22, 3-(4-{4-[4-({2-[(E)-2-(3-methylphenyl)ethenyl]-1,3-oxazol-4-yl}methoxy)phenyl]butyl}-1H-imidazol-2-yl)-1,2-propanediol]
